Measured values taken from PMC5614690, “Peptide translocation across MOMP, the major outer membrane channel from Campylobacter jejuni” (Biochemistry and Biophysics Reports, 2017).

Legend:
MOMP channel = experiment: Single-channel ion-current measurement of MOMP in planar lipid bilayer (peptide binding and translocation); parameters: species or system Campylobacter jejuni (strain 85 H); conditions: for ion-current blockage of MOMP monomer: 3 µM peptide, +125 mV; for kon (association rate) / koff (dissociation rate): 10 µM peptide, single MOMP monomer (MOMP cis); for kon (association rate): DPhPC bilayer; for Ka (equilibrium binding constant): Ka = kon/koff; for on-rate (range given): Penta- and Hepta-arginine together; for koff (dissociation rate): koff = 1/τ; for association rate kon as a function of applied voltage: +150 to +250 mV, Penta- vs Hepta-arginine, Fig. 3A; for translocation across MOMP: concluded from voltage dependence of ion-current fluctuations; for residence time, cis vs trans peptide addition / frequency of binding events, cis vs trans peptide addition: control: peptide on cis (ground) side; for residence time, cis vs trans peptide addition: –125 to –250 mV; for frequency of binding events, cis vs trans peptide addition: –150 and –250 mV; for threshold potential for successful translocation: peptide trans, MOMP cis
Protocol: The planar lipid bilayer was formed using solvent free lipid bilayer technique, [29]. In brief, the cuvettes used for our bilayer experiments consist of cis (electrical ground and side of protein addition if not otherwise indicated) and trans chambers separated by a 25 µm thick Teflon film (Goodfellow, Cambridge, UK) carrying an aperture with a diameter of 40–70 µm. Prior to forming a lipid bilayer, the aperture is pre-painted with 1 μl of 1% hexadexane in hexane. 5% solution of DPhPC in hexane is commonly used as lipid stock. The chambers are filled with electrolyte solution which typically consists of 1 M KCl, 10 mM MES, pH 6.0 with a total solution volume of 2.5 ml. On top of the aqueous phase about 1 μl of the lipid stock solution is placed. After 10 min allowing for evaporation of solvent, the membrane is formed by raising and lowering the water level. To investigate the outer membrane protein of C. jejuni, MOMP was added to the cis (ground) side of the chamber to a final concentration of 5 ng/ml and the channel insertion was facilitated by rapid mixing of the content of the chamber while applying a transmembrane potential of −199 mV. Electrical recordings were made through a pair of Ag/AgCl electrodes (World Precision Instruments, Sarasota, FL, USA), attached to an Axon Instruments 200B amplifier (Axon Instruments Inc., Sunnyvale, CA, USA) in the voltage clamp mode. Data were filtered by a low pass Bessel filter at 10 kHz and directly saved into the computer memory with a sampling frequency of 50 kHz. Data analysis was performed using Clampfit software of version 10.4 (Axon Instruments Inc., Sunnyvale, CA, USA). To obtain quantitative information on the interaction of peptides with the channel we assume that peptide binding or penetration to the channel cause sufficiently strong reduction of the ion-current compared to the typical background noise. […] This is even more pronounced for longer peptides (Fig. 1C and D).
Fig. 1 Typical ion-conductance traces of monomeric MOMP in presence of poly-arginines at +125 mV. A. In the absence of peptides; B. 3 µM of Tri-arginine; C. […] Experimental conditions: 1 M KCl, 10 mM MES, pH 6.0, T= 20 °C. The peptide is added to the trans compartment of the cuvette corresponding to the electrode at positive voltage. For the sake of clarity the traces were filtered at 5 kHz. MOMP is added on the cis (ground) side (n = 4).
For further analysis we should note that in our experiment we work under dilute concentrations and thus, the number of entries is in good approximation proportional to the concentration of the peptides in solution. The on-rate kon (association rate) is obtained by counting the number of ion-current blockage events per time n [s^−1] divided by the concentration [c] of the peptide, [26], [29], [30]. Furthermore, in some cases we have trimeric MOMP and the ion-current blockages may originate independently from one of the three monomers. kon=n/3[c]
On the other hand the opening is a statistical event and correlated to the strength of the binding. A channel which is closed at t = 0 will have the probability R(t) to open at time t. Within the above described simple binding model an exponential function R(t) = e^-t/τ. Fitting the life-time distribution of a closed channel by an exponential parameter τ (or dwell time) yields the off-rate (dissociation rate) koff = 1/τ [30]. The equilibrium binding constant Ka [M^−1] of the peptide to the channel is given by the ratio of the rates Ka = kon/koff.
Fig. 2 Analysis of the ion-current fluctuations. A. Hepta-arginine concentration dependence of binding events; data were analysed at applied voltages, +150 and +250 mV; and B. Frequency of binding events of the peptide (10 µM) vs. applied transmembrane potential. Experimental conditions: 1 M KCl, 10 mM MES, pH 6.0, T= 20 °C. MOMP is added on the cis (ground) side (n = 4).
A. Voltage dependence of the on-rate; and B. off-rate. […]

Nocardia channel = conditions: ref [25]; cited from earlier work
Text: Binding and translocation can be distinguished using the voltage dependency of the association and disassociation rates. If the time spent by a charged molecule inside the channel increases with increasing voltage, we conclude that the molecule is pulled inside on one side of the channel without being translocated. On the other hand, if the residence time decreases with increasing voltage we conclude that the molecule is able to follow the electric field gradient leaving faster to the other side. In the case of Hepta-arginine, the residence time increased from ~100 to 410 µs with increa ...

[1] = trans side, 1 M KCl, 10 mM MES, pH 6.0, 20 °C, n = 4
[2] = +150 mV, trans side, 1 M KCl, 10 mM MES, pH 6.0, 20 °C, n = 4
[3] = +150 mV, 1 M KCl, 10 mM MES, pH 6.0, 20 °C
[4] = +150 mV, 10 µM, trans side, 1 M KCl, 10 mM MES, pH 6.0, 20 °C
[5] = +175 mV, trans side, 1 M KCl, 10 mM MES, pH 6.0, 20 °C, n = 4
[6] = +175 mV, 1 M KCl, 10 mM MES, pH 6.0, 20 °C
[7] = +250 mV, trans side, 1 M KCl, 10 mM MES, pH 6.0, 20 °C, n = 4
[8] = +250 mV, 1 M KCl, 10 mM MES, pH 6.0, 20 °C
[9] = 1 M KCl, 10 mM MES, pH 6.0, 20 °C

Tri-arginine
strength of channel–peptide interaction (order) (MOMP channel): Hepta-arginine > Penta-arginine > Tri-arginine
ion-current blockage of MOMP monomer (MOMP channel; [1]): visible but very short and not fully resolvable monomer blockages
residence time (MOMP channel; +125 to +250 mV, 10 µM, trans side (MOMP cis), corresponds to time resolution of the instrument, 1 M KCl, 10 mM MES, pH 6.0, 20 °C, n = 4): ~ 70 ± 5 µs

H-RRRRRRR-OH [Hepta-arginine, H-RRRRRRR-OH trifluoro acetate salt, Mw: 1.111 kDa, from Bachem AG]
strength of channel–peptide interaction (order) (MOMP channel): Hepta-arginine > Penta-arginine > Tri-arginine
ion-current blockage of MOMP monomer (MOMP channel; [1]): complete monomer blockage
number of binding events vs peptide concentration (MOMP channel; 1 to 10 µM, +150 and +250 mV, n = 4): the number of binding events increased with the concentration of the peptide
binding vs translocation, low voltage (MOMP channel; +125 to +175 mV, 10 µM): binds to channel without being translocated
kon (association rate) (MOMP channel; [2]): 14.5 ± 1.5 (M^−1 s^−1) × 10^6
Ka (equilibrium binding constant) (MOMP channel; [3]): 4.4 ± 0.3 (M^−1) × 10^3
on-rate (range given) (MOMP channel; [4]): 13 ± 2 10^6 M^−1 s^−1
koff (dissociation rate) (MOMP channel; [2]): 3.2 ± 0.1 (s^−1) × 10^3
association rate kon as a function of applied voltage (MOMP channel): almost identical increasing values
kon (association rate) (MOMP channel; [5]): 22.2 ± 0.8 (M^−1 s^−1) × 10^6
Ka (equilibrium binding constant) (MOMP channel; [6]): 8.5 ± 0.2 (M^−1) × 10^3
koff (dissociation rate) (MOMP channel; [5]): 2.6 ± 0.3 (s^−1) × 10^3
reduction in residence time with voltage (MOMP channel; +175 to +250 mV): reduction of one-fold
binding vs translocation, high voltage (MOMP channel; +175 to +250 mV, 10 µM): successful translocation of the peptide
kon (association rate) (MOMP channel; [7]): 39.1 ± 0.5 (M^−1 s^−1) × 10^6
Ka (equilibrium binding constant) (MOMP channel; [8]): 7.7 ± 0.3 (M^−1) × 10^3
koff (dissociation rate) (MOMP channel; [7]): 5.0 ± 0.8 (s^−1) × 10^3
translocation across MOMP (MOMP channel): translocate across the MOMP channel
residence time, cis vs trans peptide addition (MOMP channel; n = 4): did not reveal significant differences
frequency of binding events, cis vs trans peptide addition (MOMP channel; n = 4): did not reveal significant differences
ion-current blockage, reverse addition (MOMP channel; peptide on cis (ground) side, MOMP on trans side, negative voltages): strong monomer blockages with negative voltages
residence time, end of decrease (MOMP channel; peptide on cis (ground) side, MOMP on trans side, –125 to –250 mV (Fig. S5), final value, 1 M KCl, 10 mM MES, pH 6.0, 20 °C, n = 4): 200 µs
residence time, start of decrease (MOMP channel; peptide on cis (ground) side, MOMP on trans side, –125 to –250 mV (Fig. S5), starting value, 1 M KCl, 10 mM MES, pH 6.0, 20 °C, n = 4): 410 µs
threshold potential for successful translocation (MOMP channel; [9]): +175 mV
voltage for pulling peptide through Nocardia channel (Nocardia channel): > −150 mV

H-RRRRR-OH [Penta-arginine, H-RRRRR-OH trifluoroacetate salt, Mw: 0.798 kDa, from Bachem AG]
strength of channel–peptide interaction (order) (MOMP channel): Hepta-arginine > Penta-arginine > Tri-arginine
ion-current blockage of MOMP monomer (MOMP channel; [1]): complete monomer blockage
kon (association rate) (MOMP channel; [2]): 12.9 ± 1.2 (M^−1 s^−1) × 10^6
Ka (equilibrium binding constant) (MOMP channel; [3]): 2.0 ± 0.5 (M^−1) × 10^3
on-rate (range given) (MOMP channel; [4]): 13 ± 2 10^6 M^−1 s^−1
koff (dissociation rate) (MOMP channel; [2]): 6.2 ± 0.3 (s^−1) × 10^3
association rate kon as a function of applied voltage (MOMP channel): almost identical increasing values
kon (association rate) (MOMP channel; [5]): 20.4 ± 1.2 (M^−1 s^−1) × 10^6
Ka (equilibrium binding constant) (MOMP channel; [6]): 4.1 ± 0.3 (M^−1) × 10^3
koff (dissociation rate) (MOMP channel; [5]): 5.0 ± 0.6 (s^−1) × 10^3
kon (association rate) (MOMP channel; [7]): 34.7 ± 0.8 (M^−1 s^−1) × 10^6
Ka (equilibrium binding constant) (MOMP channel; [8]): 3.3 ± 0.2 (M^−1) × 10^3
koff (dissociation rate) (MOMP channel; [7]): 10.3 ± 0.8 (s^−1) × 10^3
koff relative to Hepta-arginine (MOMP channel; Fig. 3B, 10 µM, trans side): about twice higher off-rates
translocation across MOMP (MOMP channel): translocate across the MOMP channel
residence time, cis vs trans peptide addition (MOMP channel; n = 4): did not reveal significant differences
frequency of binding events, cis vs trans peptide addition (MOMP channel; n = 4): did not reveal significant differences
permeation vs voltage (MOMP channel; increasing voltages): permeated faster with increasing voltages
threshold potential for successful translocation (MOMP channel; [9]): +175 mV
voltage for pulling peptide through Nocardia channel (Nocardia channel): > –175 mV
